Data taken from patent US9040713B2, “Methods of managing blood sugar levels and compositions related thereto” (EMORY UNIVERSITY, priority 2010, dated 2015).

Assays:
[1] = biological target: GFP-IRTK R2; test: In vitro kinase assay of IRTK/IGF-1R kinase hybrids; format: biochemical, human; conditions: R2 region of IRTK replaced with IGF-1R
Procedure: (§1) Parental CHO cells were used as a negative control (Bottom panel). The fluorescence-labeled cells were analyzed on flow cytometry. (B) 4524-E7 protects IRTK from proteolysis. GST-IRTK was subjected to limited trypsin or chymotrypsin digestion in the presence of 4524-E7 (50 μM), ATPyS (5 μM) or both at 37° C. for 5 min. The reaction mixture was resolved by SDS-PAGE, followed by silver staining Cleaved fragments were asterisked. (C) 4524-E7 increases IRTK activity in vitro. Recombinant GST-IRTK, GST-IGFRTK, and GST-EGFRTK were incubated with different concentrations of 4524-E7 or 10 μM 2—NH2-NQ and the kinase activity was examined by monitoring the phosphorylation of histone H2B. (E) In vitro kinase activity of various IRTK/IGF-1R kinase hybrids. The GFP-tagged kinases were expressed in HEK293, immunoprecipitated and incubated with different concentrations of 4524-E7 as indicated. […] Expressions of the kinases were also verified (lower panel).
To test if these regions are the action sites of 4524-E7, several GFP-tagged hybrid kinases were generated with R1 (GFP-IRTK R1), R2 (GFP-IRTK R2) or both (GFP-IRTK R1+R2) regions of IRTK and replaced with the corresponding sequence of IGF-1R. These mutants were then used to perform the in vitro kinase assay in the presence of 4524-E7. […]

[2] = tested on: IR-IGFR; test: His-tagged chimaeric receptor phosphorylation in CHO cells; format: cell-based, human; conditions: 5 μM, 30 min
Procedure: (A) Chemical structure of 4524-E7. (B) Effect of 4524-E7 and other 1,4-naphthoquinone derivatives on IR phosphorylation in CHO-IR cells. CHO-IR cells were cultured in 96-well plates and treated with 5 μM compounds for 15 min at 37 C. Cells were lysed, and IR phosphorylations were tested by ELISA. The IR phosphorylation activities of the tested compounds were expressed as a percentage of the vehicle. (C) 4524-E7 and 1,4-naphthoquinone derivates activate IR and its downstream signaling in CHO-IR cells. […] The cell lysates were analyzed by immunoblotting with various indicated antibodies. The phosphorylated IR was immunoprecipitated using PY20 and analyzed by immunoblotting with anti-IR13 antibody. […] The phosphorylation of each receptor was determined by Western blot using specific antibodies as indicated. (E) 4524-E7 activates IR through its ICD. Upper panel: Diagram of chimaeric receptors. Lower panel: His-tagged wild-type IR, IGFR-IR, IR-IGFR, and IR-EGFR constructs were transfected into CHO cells followed vehicle or 5 μM 4524-E7 treatment for 30 min. Then the cells were lysated and the transfected receptor fused to His tag were pulled down with Ni+ beads, followed by western blot against anti-p-Tyr and anti-His. The cell lysates were tested with anti-p-Akt and anti-Akt.
The cDNA encoding wild type IR was introduced into the pcDNA3.1/V5-His-TOPO vector. […]

[3] = biological target: T1, GST-EGFRTK (Homo sapiens, UniProt P00533); test: In vitro kinase assay (histone H2B phosphorylation); format: biochemical; conditions: different concentrations of 4524-E7
T1 construct: histone phosphorylation by recombinant IGFR or EGFR tyrosine kinase
Procedure: as §1
(§2) To evaluate if 4524-E7 directly binds to the IR kinase domain, a partial proteolysis assay was performed with recombinant IRTK domain using trypsin or chymotrypsin, which was used before to characterize the interaction between IR and its small molecular ligand DAQ B1. Recombinant GST-tagged IRTK with either DMSO, 50 μM 4524-E7 or ATP-γ-S, were incubated and followed by limited trypsin or chymotrypsin digestion. […]

[4] = biological target: T2, GST-IGFRTK (Homo sapiens, UniProt P08069); test: as above; format: biochemical; conditions: different concentrations of 4524-E7
T2 construct: histone phosphorylation by recombinant IGFR or EGFR tyrosine kinase
Procedure: as §1, §2

[5] = biological target: T3, TrkB (Homo sapiens, UniProt Q16620); test: TrkB phosphorylation in transfected HEK293 cells (Western blot); format: cell-based; conditions: 5 μM
T3 construct: expressed in transfected cells; host or cells: HEK293

[6] = tested on: MCF7 cells; test: Proliferation of MCF7 cells; format: cell-based
[7] = tested on: EGFR, ErbB2, EphAl, FGFR1, VEGFR1, cMet, TrkB, PDGFRa, RET; test: RTK kinase profile screen assay; format: biochemical
[8] = tested on: ob/ob mice; test: Plasma insulin in ob/ob mice; format: in vivo, mouse; conditions: single oral doses
Procedure: After a 12 h fasting, ob/ob mice were bled from the tail vein for a baseline (time −60 minutes) measurement. Then animals were orally administered 5 mg/kg compound in 0.5% methylcellulose. One hour after the drug administration, glucose (2 g/kg) was administrated intraperitoneally. Blood glucose levels were measured 0, 30, 60, 90, 120, and 180 min after administration of glucose. The blood was collected in tubes, kept at 4° C. overnight, and plasma was prepared by centrifugation (2,000 g, 20 min). Plasma insulin was measured by enzyme-linked immunosorbent assay with a rat insulin kit (Crystal Chem. Inc., USA). Insulin was quantified using the insulin standard curve.

T1 sequence (P00533 712-979 limits assumed): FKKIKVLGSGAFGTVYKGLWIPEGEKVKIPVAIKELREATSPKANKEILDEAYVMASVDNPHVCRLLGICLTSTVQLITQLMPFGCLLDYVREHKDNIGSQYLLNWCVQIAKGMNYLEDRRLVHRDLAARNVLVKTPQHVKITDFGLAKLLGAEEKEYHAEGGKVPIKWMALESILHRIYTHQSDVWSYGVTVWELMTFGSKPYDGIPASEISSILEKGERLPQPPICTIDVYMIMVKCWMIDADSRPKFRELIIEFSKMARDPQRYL
T3 sequence (Q16620 32-822, species assumed): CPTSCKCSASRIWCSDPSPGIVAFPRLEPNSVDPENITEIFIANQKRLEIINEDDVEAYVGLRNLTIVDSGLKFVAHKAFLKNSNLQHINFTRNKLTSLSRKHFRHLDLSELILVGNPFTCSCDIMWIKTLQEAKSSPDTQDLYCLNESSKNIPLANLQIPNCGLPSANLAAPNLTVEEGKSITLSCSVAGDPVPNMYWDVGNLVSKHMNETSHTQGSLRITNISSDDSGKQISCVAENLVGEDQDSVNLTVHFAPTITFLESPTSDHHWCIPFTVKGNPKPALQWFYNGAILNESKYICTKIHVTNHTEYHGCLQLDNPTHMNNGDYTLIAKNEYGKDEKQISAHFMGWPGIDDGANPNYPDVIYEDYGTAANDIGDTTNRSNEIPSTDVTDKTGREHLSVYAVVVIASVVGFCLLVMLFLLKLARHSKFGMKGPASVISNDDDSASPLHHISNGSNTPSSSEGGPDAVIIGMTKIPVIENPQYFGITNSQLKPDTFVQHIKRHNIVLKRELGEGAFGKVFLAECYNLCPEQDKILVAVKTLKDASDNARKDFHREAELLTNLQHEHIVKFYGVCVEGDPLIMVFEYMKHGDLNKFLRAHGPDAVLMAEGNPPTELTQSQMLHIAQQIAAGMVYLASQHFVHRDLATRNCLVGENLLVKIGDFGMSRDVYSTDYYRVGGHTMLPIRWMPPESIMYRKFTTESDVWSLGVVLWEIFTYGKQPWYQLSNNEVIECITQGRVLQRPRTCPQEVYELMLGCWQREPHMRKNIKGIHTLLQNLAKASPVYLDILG
T2 sequence (P08069 999-1274 limits assumed): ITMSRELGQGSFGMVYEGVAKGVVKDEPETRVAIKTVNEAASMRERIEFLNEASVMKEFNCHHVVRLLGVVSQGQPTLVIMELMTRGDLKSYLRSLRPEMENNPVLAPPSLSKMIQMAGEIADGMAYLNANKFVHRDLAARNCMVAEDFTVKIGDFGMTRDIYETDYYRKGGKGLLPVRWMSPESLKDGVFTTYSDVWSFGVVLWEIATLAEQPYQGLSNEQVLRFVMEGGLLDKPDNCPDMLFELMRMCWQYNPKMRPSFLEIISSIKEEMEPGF

Row | Structure (SMILES) | kinase stimulatory effect on hybrid kinase [1] | tyrosine phosphorylation of chimaeric receptor [2] | EGFR tyrosine kinase activity (histone phosphorylation) [3] | IGFR tyrosine kinase activity (histone phosphorylation) [4] | TrkB activation [5] | proliferation of MCF7 cells [6] | activation of tested RTKs [7] | plasma insulin levels [8]
1 | O=C1c2ccccc2C(=O)C2SC(Nc3ccc(Cl)cc3)=NC12 (centres unmarked) [4524-E7, 2-((4-chlorophenyl)amino)naphtho[2,3-d]thiazole-4,9(3aH,9aH)-dione] | abolishes the kinase stimulatory effect | not phosphorylated | no effect | no effect | not any other RTKs | not able to induce the proliferation of MCF7 cells | none of the tested RTKs | 
2 | CC(=O)Oc1ccc(OC(C)=O)c2c1C(=O)C(Cl)=C(Cl)C2=O [DDN, 5,8-diacetyloxy-2,3-dichloro-1,4-naphthoquinone] |  |  |  |  |  |  |  | no significant effect on plasma insulin levels
